The values below come from patent US20240368203A1, “DEGRADATION OF (EGFR) BY CONJUGATION OF EGFR INHIBITORS WITH E3 LIGASE LIGAND AND METHODS OF USE” (BeiGene, Ltd., priority 2022, published 2024).

For one experiment, the system named is EGFR-Del19/T790M/C797S. The experiment can be described thus: EGFR degradation HTRF assay in H1975-clone #28 cells. It is filed as cell-based. The following applies: H1975-clone #28 (Del19/T790M/C797S) cells, 16 h treatment; for DC50: IC50 (DC50), read-out: DC50(nM) H1975 # 28 DTC; for Dmax (%) H1975 # 28 DTC: maximum percentage of inhibition (degradation). The gist of the method: (§1)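 H1975 clones with endogenous EGFR knocked out, homozygously expressing lentiviral L858R/T790M/C797S (#25) or Del19/T790M/C797S (#28), treated 16 h at 37° C with 8 doses from 10 uM, 5-fold, in 0.2% DMSO. EGFR in lysates measured by HTRF overnight; DC50 from four-parameter fit of % degradation.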
(In TR-FRET formats the signal depends on donor and acceptor labels being close together.)

In another experiment the target is T1, EGFR-L858R/T790M/C797S (Homo sapiens, UniProt P00533, C797S/L858R/T790M).
T1 construct: expressed in transfected cells; host or cells: H1975-clone #25 (lentiviral over-expression, endogenous EGFR knocked out)
The experiment can be described thus: EGFR degradation HTRF assay in H1975-clone #25 cells. It is filed as cell-based. To be noted: 16 h treatment; for DC50: H1975-clone #25 (L858R/T790M/C797S) cells, IC50 (DC50), read-out: DC50(nM) H1975 # 25-LTC; for Dmax: NCI-H1975, H1975-clone #25 (L858R/T790M/C797S) cells, maximum percentage of inhibition (degradation), read-out: Dmax (%) H1975 # 25-LTC. The gist of the method: as §1

The DC50 is the concentration at which degradation of the target reaches its halfway point. The Dmax is the greatest extent of degradation seen.

T1 sequence (P00533 25-1210 T790M/C797S/L858R): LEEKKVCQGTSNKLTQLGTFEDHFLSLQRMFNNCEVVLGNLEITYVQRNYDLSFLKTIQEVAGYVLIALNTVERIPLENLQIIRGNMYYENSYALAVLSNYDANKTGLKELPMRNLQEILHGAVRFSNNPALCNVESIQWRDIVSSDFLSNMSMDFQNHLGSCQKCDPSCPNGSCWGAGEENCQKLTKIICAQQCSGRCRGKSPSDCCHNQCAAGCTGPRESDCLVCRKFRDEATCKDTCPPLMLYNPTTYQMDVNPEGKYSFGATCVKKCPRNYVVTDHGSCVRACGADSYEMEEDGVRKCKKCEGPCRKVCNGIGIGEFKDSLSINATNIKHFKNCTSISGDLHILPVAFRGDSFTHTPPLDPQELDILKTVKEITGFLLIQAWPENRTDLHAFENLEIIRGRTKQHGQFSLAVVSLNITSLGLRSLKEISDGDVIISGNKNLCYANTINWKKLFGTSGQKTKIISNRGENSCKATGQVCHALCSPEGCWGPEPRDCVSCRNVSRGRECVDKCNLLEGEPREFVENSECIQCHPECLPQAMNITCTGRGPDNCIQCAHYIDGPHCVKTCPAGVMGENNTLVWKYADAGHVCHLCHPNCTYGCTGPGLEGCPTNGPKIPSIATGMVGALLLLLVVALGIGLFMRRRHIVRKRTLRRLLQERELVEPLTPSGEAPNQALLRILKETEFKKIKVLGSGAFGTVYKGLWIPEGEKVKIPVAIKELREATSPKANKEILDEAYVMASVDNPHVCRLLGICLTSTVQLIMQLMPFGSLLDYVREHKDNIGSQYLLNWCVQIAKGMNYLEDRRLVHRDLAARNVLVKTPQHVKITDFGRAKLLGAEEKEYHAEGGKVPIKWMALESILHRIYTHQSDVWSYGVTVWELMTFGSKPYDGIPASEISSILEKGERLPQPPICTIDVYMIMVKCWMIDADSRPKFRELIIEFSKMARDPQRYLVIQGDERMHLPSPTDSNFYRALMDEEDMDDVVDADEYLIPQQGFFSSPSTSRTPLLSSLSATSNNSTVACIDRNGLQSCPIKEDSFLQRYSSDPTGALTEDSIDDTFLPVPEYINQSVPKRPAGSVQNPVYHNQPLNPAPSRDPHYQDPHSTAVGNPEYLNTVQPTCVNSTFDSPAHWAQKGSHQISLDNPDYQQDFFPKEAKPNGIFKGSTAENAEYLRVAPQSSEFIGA

Turning to `CCc1ncc2c(P(C)(C)=O)c(Nc3nc(Nc4cc(CC)c(N5CCC(N6CC7(CN(c8cccc9c8n(C)c(=O)n9C8CCC(=O)NC8=O)C7)C6)CC5)cc4OC)ncc3Br)ccc2n1` (stereo not shown) [Example 25, 3-(4-(6-(1-(4-((5-bromo-4-((5-(dimethylphosphoryl)-2-ethylquinazolin-6-yl)amino)pyrimidin-2-yl)amino)-2-ethyl-5-methoxyphenyl)piperidin-4-yl)-2,6-diazaspiro[3.3]heptan-2-yl)-3-methyl-2-oxo-2,3-dihydro-1H-benzo[d]imidazol-1-yl)piperidine-2,6-dione], in the experiment on EGFR-Del19/T790M/C797S, the DC50 amounted to 0.8 nM and the “Dmax (%) H1975 # 28 DTC” value was 74%. Moreover, on EGFR-L858R/T790M/C797S, the DC50 worked out at 0.5 nM and the Dmax amounted to 82%.
For the compound `CCc1cc(Nc2ncc(Cl)c(Nc3ccc4nc(C)c(F)cc4c3P(C)(C)=O)n2)c(OC)cc1N1CCC2(CCN(CCc3cc(F)c([C@H]4CCC(=O)NC4=O)c(F)c3)CC2)CC1` [Example 41, (R)-3-(4-(2-(9-(4-((5-chloro-4-((5-(dimethylphosphoryl)-3-fluoro-2-methylquinolin-6-yl)amino)pyrimidin-2-yl)amino)-2-ethyl-5-methoxyphenyl)-3,9-diazaspiro[5.5]undecan-3-yl)ethyl)-2,6-difluorophenyl)piperidine-2,6-dione], in the experiment with EGFR-Del19/T790M/C797S, the DC50 worked out at 4.2 nM and the “Dmax (%) H1975 # 28 DTC” value was 86%. Also, on EGFR-L858R/T790M/C797S, the DC50 was determined as 4.2 nM and the greatest degradation seen (Dmax) came out at 88%.
Regarding `CCc1ccc2c(P(C)(C)=O)c(Nc3nc(Nc4cc(CC)c(N5CCC(N6CCC(N7CC(c8cc(F)c([C@H]9CCC(=O)NC9=O)c(F)c8)C7)CC6)CC5)cc4OC)ncc3Br)ccc2n1` (single isomer, unassigned) [Example 30], in the experiment on EGFR-Del19/T790M/C797S, the DC50 amounted to 13.3 nM and the “Dmax (%) H1975 # 28 DTC” value is reported as 87%. For the same compound, on EGFR-L858R/T790M/C797S, the DC50 was 10.8 nM and the Dmax is 89%.
The like results for `CCc1cc(Nc2ncc(Cl)c(Nc3ccc4nc(C)c(F)cc4c3P(C)(C)=O)n2)c(OC)cc1N1CC2(C1)CN(C1CCN(c3cc(F)c([C@H]4CCC(=O)NC4=O)c(F)c3)CC1)C2` [Example 61, (R)-3-(4-(4-(6-(4-((5-chloro-4-((5-(dimethylphosphoryl)-3-fluoro-2-methylquinolin-6-yl)amino)pyrimidin-2-yl)amino)-2-ethyl-5-methoxyphenyl)-2,6-diazaspiro[3.3]heptan-2-yl)piperidin-1-yl)-2,6-difluorophenyl)piperidine-2,6-dione] were, in that order, 0.9 nM, 94%, 1.2 nM and 94%.
With `CCc1cc(Nc2ncc(Br)c(Nc3ccc4nc(C)c(F)cc4c3P(C)(C)=O)n2)c(OC)cc1N1CCC(N2CC3(CN(c4cc(F)c([C@H]5CCC(=O)NC5=O)c(F)c4)C3)C2)CC1` [Example 60, (R)-3-(4-(6-(1-(4-((5-bromo-4-((5-(dimethylphosphoryl)-3-fluoro-2-methylquinolin-6-yl)amino)pyrimidin-2-yl)amino)-2-ethyl-5-methoxyphenyl)piperidin-4-yl)-26-diazaspiro[3.3]heptan-2-yl)-2,6-difluorophenyl)piperidine-2,6-dione], in the experiment with EGFR-Del19/T790M/C797S, the 50% degradation concentration (DC50) is 0.5 nM and the “Dmax (%) H1975 # 28 DTC” value was determined as 95%. Further, at EGFR-L858R/T790M/C797S, the DC50 was 1.1 nM and the Dmax stood at 95%.
Consider `CCOc1cc(N2CCC(N3CCN(C4CCN(c5cc(F)c([C@H]6CCC(=O)NC6=O)c(F)c5)CC4)CC3)CC2)c(CC)cc1Nc1ncc(Cl)c(Nc2ccc3nc(C)c(F)cc3c2P(C)(C)=O)n1` [Example 54, (R)-3-(4-(4-(4-(1-(4-((5-chloro-4-((5-(dimethylphosphoryl)-3-fluoro-2-methylquinolin-6-yl)amino)pyrimidin-2-yl)amino)-5-ethoxy-2-ethylphenyl)piperidin-4-yl)piperazin-1-yl)piperidin-1-yl)-2,6-difluorophenyl)piperidine-2,6-dione], for which, in the experiment on EGFR-Del19/T790M/C797S, the DC50 turned out to be 3.6 nM and the “Dmax (%) H1975 # 28 DTC” value was found to be 86%. For the same compound, on EGFR-L858R/T790M/C797S, the DC50 was found to be 3.6 nM and the greatest degradation seen (Dmax) was determined as 88%.
In the case of `CCc1cc(Nc2ncc(Br)c(Nc3ccc4nc(C)c(F)cc4c3P(C)(C)=O)n2)c(OC)cc1N1CCC2(CCN(CC3CCN(c4cccc5c4C(=O)N(C4CCC(=O)NC4=O)C5=O)CC3)CC2)CC1` (stereo not shown) [Example 45, 4-(4-((9-(4-((5-bromo-4-((5-(dimethylphosphoryl)-3-fluoro-2-methylquinolin-6-yl)amino)pyrimidin-2-yl)amino)-2-ethyl-5-methoxyphenyl)-3,9-diazaspiro[5.5]undecan-3-yl)methyl)piperidin-1-yl)-2-(2,6-dioxopiperidin-3-yl)isoindoline-1,3-dione], in the experiment with EGFR-Del19/T790M/C797S, the DC50 was found to be 7.7 nM and the “Dmax (%) H1975 # 28 DTC” value came to 81%. On EGFR-L858R/T790M/C797S, the DC50 came out at 7.4 nM and the Dmax was determined as 86%.
